Measured values from US20140170096A1, “SUNSCREEN COMPOSITIONS” (priority 2011, published 2014).
Entries after “also recorded” stand apart in the source; their conditions may differ. Like-named read-outs stand apart in the source and are kept apart here.

Key:
[1] = test system: stony coral Acropora sp. nubbins; assay: Quantification of coral bleaching by colorimetric (CMYK) analysis of digital photographs; type: in vivo; conditions: for Number of color channels (of 4, CMYK) significantly altered: after 72 h of incubation; for One-way ANOVA probability level, color component Black (K) / One-way ANOVA probability level, color component Cyan (C) / One-way ANOVA probability level, color component Magenta (M) / One-way ANOVA probability level, color component Yellow (Y): coral color change, start vs after treatment
Method: (§1) In situ tests were performed on nubbins (i.e., small branches of about 3-6 cm) of the stony coral Acropora sp. The nubbins were incubated in microcosms in presence of known concentrations of various ingredients potentially to be included in the composition of the eco-compatible sunscreen cream. In particular, coral nubbins (including more than 3000 polyps each) were collected by scuba divers from the same colony, located at a depth of about 3 m on the edge of the reef slope. Sampling of nubbins was performed by means of forceps. The nubbins were washed with seawater filtered onto 0.02-μm filters to eliminate viruses and prokaryotes. Each microcosm was prepared with a replicate set of nubbins (n=3) immersed in sterile polyethylene bags (Whirl-pack, Nasco, Fort Atkinson, Wis., USA) filled with 2 L filtered seawater. A total of 27 microcosms were prepared, in order to test 20 ingredients with the respective positive and negative controls. The microcosms were incubated at in situ temperature and light conditions for 72 hours.
Photographs were taken under identical illumination with a Canon PowerShot A620 digital camera (Canon Inc., Tokyo, Japan) with a scale meter on the background. The photos were successively analyzed with a photo-editing software (Adobe Photoshop CS2) for color composition [cyan, magenta, yellow, black (CMYK)]. Levels of bleaching were measured as the difference between the corals' color at the beginning of the experiment and after treatments. Variations in the percentage of the different color components (CMYK) were analyzed with one-way analysis of variance (ANOVA). To rank the bleaching effect due to the compounds tested, a Bray-Curtis similarity matrix was prepared and a multidimensional scaling analysis of the shifts in CMYK color composition of treated corals was performed using Primer 5.0 software (Primer-E Ltd., Plymouth, UK). Bleaching rates were measured as the dissimilarity percentage in CMYK color composition between treated and control corals using the SIMPER tool of Primer 5.0 software (Primer-E Ltd).

[2] = test system: prokaryotes in water surrounding coral nubbins; assay: Prokaryotic (bacterial) abundance and enrichment in seawater surrounding coral nubbins (microcosm incubation); conditions: seawater surrounding Acropora sp. nubbins
Method: as §1
(§2) After subsampling, sea water was transferred into sterile test tubes without use of fixatives and stored at −20° C. until laboratory analysis for quantification of viral and prokaryotic abundance. Once in laboratory, the water samples were immediately processed. Briefly, 200 uL sea water were diluted 1:10 with prefiltered MilliQ water, through 0.02-μm pore filters (Anodisc filter; 25-mm diameter, Al2O3; Whatman) and stained with 20 μL SYBR Green (stock solution diluted 1:20; Invitrogen, Carlsbad, Calif., USA). […] Slides were stored at −20° C. until microscopy analysis. Virus and prokaryote counts were obtained by epifluorescence microscopy (magnification, ×1000; Zeiss Axioplan) by examining at least 10 optical fields, that is, at least 200 cells or viruses per replicate. Viral (and prokaryotic) enrichment was calculated as ratio between virus (and prokaryote) abundances and virus (and prokaryote) abundance at the […] of the experiment.

[3] = test system: symbiotic zooxanthellae released from coral nubbins; assay: Zooxanthellae counts: zooxanthellae released in water surrounding coral nubbins; type: in vivo, Acropora sp.; conditions: for Healthy zooxanthellae released / Pale zooxanthellae released / Total zooxanthellae released / Transparent (i.e., dead) zooxanthellae released: end of incubation (72 h); for Percentage of healthy zooxanthellae released / Percentage of pale zooxanthellae released / Percentage of transparent zooxanthellae released: of total released; for Abundance of released zooxanthellae compared with the BLK system: statistical analysis, P<0.01
Method: as §1
Subsamples (50 mL) of seawater surrounding coral nubbins were collected at the start of the experiment (T0) and after 6, 12, 24, 36, 48 and 72 hours of incubation. The subsamples were fixed in 3% glutaraldehyde and then about 6.0 ml of each replicate was filtered through 2.0-μm polycarbonate filters. Filters were mounted on glass slides and zooxanthellae counted under epifluorescence microscopy (Zeiss Axioplan, Carl Zeiss Inc., Jena, Germany; ×400 and ×1000) using standard and UV light.

[4] = test system: viruses in water surrounding coral nubbins; assay: Viral abundance and viral enrichment in seawater surrounding coral nubbins (microcosm incubation); conditions: for Total viral abundances (TVN): seawater surrounding Acropora sp. nubbins, compound concentration per Table 2; for Viral enrichment factor (VEF): ratio of viral abundances, end vs start of incubation
Method: as §1, §2

coral reefs = assay: Summary of eco-compatibility of tested products with coral reefs; set-up: species or system Acropora sp.
Method: In order to select the most eco-compatible products for each group of compounds (i.e., base cream, fragrance, antioxidants and filters) the following criteria were selected:
1. coral bleaching level; 2. degree of release of symbiotic zooxanthellae; 3. zooxanthellae health conditions; 4. viral enrichment in the incubation medium with respect to controls.

2-phospho-ascorbic acid trisodium salt [System D18]
Number of color channels (of 4, CMYK) significantly altered [1]: 4 | One-way ANOVA probability level, color component Black (K) [1]: ** (** = P < 0.01) | One-way ANOVA probability level, color component Cyan (C) [1]: ** (** = P < 0.01) | One-way ANOVA probability level, color component Magenta (M) [1]: ** (** = P < 0.01) | One-way ANOVA probability level, color component Yellow (Y) [1]: * (* = P < 0.05) | Bacterial abundance (total bacterial number, TBN) ([2]; incubation 0 (start)): 3.86E+04 | Bacterial abundance (total bacterial number, TBN) ([2]; incubation 12 h): 1.39E+06 | Final abundance of zooxanthellae in water surrounding the coral nubbins ([3]; end of incubation): 4.45 ×10^4 cell ml^−1 | Healthy zooxanthellae released [3]: 1.14E+03 cells ml^−1 | Pale zooxanthellae released [3]: 1.09E+04 cells ml^−1 | Total zooxanthellae released [3]: 2.11E+04 cells ml^−1 | Transparent (i.e., dead) zooxanthellae released [3]: 9.06E+03 cells ml^−1 | Percentage of healthy zooxanthellae released ([3]; end of incubation): 5% | Percentage of pale zooxanthellae released ([3]; end of incubation): 52% | Percentage of transparent zooxanthellae released ([3]; end of incubation): 43% | Abundance of released zooxanthellae compared with the BLK system [3]: significantly higher | Total viral abundances (TVN) ([4]; incubation 0 (start)): 3.70E+05 viruses ml^−1 | Total viral abundances (TVN) ([4]; incubation 12 h): 2.51E+06 viruses ml^−1 | Viral enrichment factor (VEF) [4]: 7.09

CC(=O)Oc1c(C)c(C)c2c(c1C)CCC(C)(CCC[C@H](C)CCC[C@H](C)CCCC(C)C)O2 (mixture of isomers) [System D17, DL-tocopherol-acetate]
Eco-compatibility (coral reefs; criteria: bleaching level, zooxanthellae release, zooxanthellae health, viral enrichment, listed as Tocopheryl acetate): Highly compatible | Eco-compatibility (coral reefs; criteria: bleaching level, zooxanthellae release, zooxanthellae health, viral enrichment, listed as tocopheryl acetate): greater eco-compatibility | Bacterial abundance (total bacterial number, TBN) ([2]; incubation 0 (start)): 5.80E+04 | Bacterial abundance (total bacterial number, TBN) ([2]; incubation 12 h): 1.42E+06 | Healthy zooxanthellae released [3]: 1.48E+03 cells ml^−1 | Pale zooxanthellae released [3]: 1.88E+04 cells ml^−1 | Total zooxanthellae released [3]: 4.45E+04 cells ml^−1 | Transparent (i.e., dead) zooxanthellae released [3]: 2.42E+04 cells ml^−1 | Percentage of healthy zooxanthellae released ([3]; end of incubation): 3% | Percentage of pale zooxanthellae released ([3]; end of incubation): 42% | Percentage of transparent zooxanthellae released ([3]; end of incubation): 54% | Abundance of released zooxanthellae compared with the BLK system [3]: significantly higher | Total viral abundances (TVN) ([4]; incubation 0 (start)): 3.49E+05 viruses ml^−1 | Total viral abundances (TVN) ([4]; incubation 12 h): 2.83E+06 viruses ml^−1 | Viral enrichment factor (VEF) [4]: 8.36

CO[C@@]12[C@H](COC(N)=O)C3=C(C(=O)C(C)=C(N)C3=O)N1C[C@@H]1N[C@@H]12 [MITO, Mitomycin C, reference compound]
Number of color channels (of 4, CMYK) significantly altered [1]: 4 | One-way ANOVA probability level, color component Black (K) [1]: ** (** = P < 0.01) | One-way ANOVA probability level, color component Cyan (C) [1]: ** (** = P < 0.01) | One-way ANOVA probability level, color component Magenta (M) [1]: ** (** = P < 0.01) | One-way ANOVA probability level, color component Yellow (Y) [1]: ** (** = P < 0.01) | Bacterial abundance (total bacterial number, TBN) ([2]; incubation 0 (start)): 1.11E+05 | Bacterial abundance (total bacterial number, TBN) ([2]; incubation 12 h): 1.53E+06 | Healthy zooxanthellae released [3]: 0.00E+00 cells ml^−1 | Pale zooxanthellae released [3]: 5.25E+03 cells ml^−1 | Total zooxanthellae released [3]: 2.20E+04 cells ml^−1 | Transparent (i.e., dead) zooxanthellae released [3]: 1.68E+04 cells ml^−1 | Percentage of healthy zooxanthellae released ([3]; end of incubation): 0% | Percentage of pale zooxanthellae released ([3]; end of incubation): 24% | Percentage of transparent zooxanthellae released ([3]; end of incubation): 76% | Total viral abundances (TVN) ([4]; incubation 0 (start)): 1.11E+05 viruses ml^−1 | Total viral abundances (TVN) ([4]; incubation 12 h): 1.53E+06 viruses ml^−1

Cc1c(C)c2c(c(C)c1O)CC[C@@](C)(CCC[C@H](C)CCC[C@H](C)CCCC(C)C)O2 [System D16, Alpha-tocopherol]
Eco-compatibility (coral reefs; criteria: bleaching level, zooxanthellae release, zooxanthellae health, viral enrichment, listed as Tocopherol): Highly compatible | Eco-compatibility (coral reefs; criteria: bleaching level, zooxanthellae release, zooxanthellae health, viral enrichment, listed as tocopherol): greater eco-compatibility | Bacterial abundance (total bacterial number, TBN) ([2]; incubation 0 (start)): 3.78E+04 | Healthy zooxanthellae released [3]: 4.09E+03 cells ml^−1 | Pale zooxanthellae released [3]: 1.25E+04 cells ml^−1 | Total zooxanthellae released [3]: 2.67E+04 cells ml^−1 | Transparent (i.e., dead) zooxanthellae released [3]: 1.01E+04 cells ml^−1 | Percentage of healthy zooxanthellae released ([3]; end of incubation): 15% | Percentage of pale zooxanthellae released ([3]; end of incubation): 47% | Percentage of transparent zooxanthellae released ([3]; end of incubation): 38% | Abundance of released zooxanthellae compared with the BLK system [3]: significantly higher | Total viral abundances (TVN) ([4]; incubation 0 (start)): 3.24E+05 viruses ml^−1 | Total viral abundances (TVN) ([4]; incubation 12 h): 1.46E+06 viruses ml^−1 | Viral enrichment factor (VEF) [4]: 4.54

CC(C)(C)CC(C)(C)c1cc(Cc2cc(C(C)(C)CC(C)(C)C)cc(-n3nc4ccccc4n3)c2O)c(O)c(-n2nc3ccccc3n2)c1 [System D22]
Eco-compatibility (coral reefs; criteria: bleaching level, zooxanthellae release, zooxanthellae health, viral enrichment, listed as MBBT): greater eco-compatibility; also recorded: Highly compatible | Bacterial abundance (total bacterial number, TBN) ([2]; incubation 0 (start)): 5.47E+04 | Bacterial abundance (total bacterial number, TBN) ([2]; incubation 12 h): 9.18E+05 | Healthy zooxanthellae released [3]: 4.70E+02 cells ml^−1 | Pale zooxanthellae released [3]: 6.91E+03 cells ml^−1 | Total zooxanthellae released [3]: 1.80E+04 cells ml^−1 | Transparent (i.e., dead) zooxanthellae released [3]: 1.06E+04 cells ml^−1 | Percentage of healthy zooxanthellae released ([3]; end of incubation): 3% | Percentage of pale zooxanthellae released ([3]; end of incubation): 38% | Percentage of transparent zooxanthellae released ([3]; end of incubation): 59% | Decrease of VPR ([4]; after incubations): up to 10 times | Total viral abundances (TVN) ([4]; incubation 0 (start)): 5.06E+05 viruses ml^−1 | Total viral abundances (TVN) ([4]; incubation 12 h): 2.99E+06 viruses ml^−1 | Viral enrichment factor (VEF) [4]: 6.16

CCCCC(CC)COC(=O)c1ccc(Nc2nc(Nc3ccc(C(=O)OCC(CC)CCCC)cc3)nc(Nc3ccc(C(=O)OCC(CC)CCCC)cc3)n2)cc1 (stereo not drawn) [System D24, ethylhexyl triazone]
Eco-compatibility (coral reefs): Compatible | Bacterial abundance (total bacterial number, TBN) ([2]; incubation 0 (start)): 2.09E+04 | Bacterial abundance (total bacterial number, TBN) ([2]; incubation 12 h): 7.41E+05 | Healthy zooxanthellae released [3]: 2.68E+02 cells ml^−1 | Pale zooxanthellae released [3]: 8.39E+03 cells ml^−1 | Total zooxanthellae released [3]: 1.89E+04 cells ml^−1 | Transparent (i.e., dead) zooxanthellae released [3]: 1.02E+04 cells ml^−1 | Percentage of healthy zooxanthellae released ([3]; end of incubation): 1% | Percentage of pale zooxanthellae released ([3]; end of incubation): 44% | Percentage of transparent zooxanthellae released ([3]; end of incubation): 54% | Total viral abundances (TVN) ([4]; incubation 0 (start)): 9.58E+04 viruses ml^−1 | Total viral abundances (TVN) ([4]; incubation 12 h): 1.08E+06 viruses ml^−1 | Viral enrichment factor (VEF) [4]: 12.58

CCCCCCOC(=O)c1ccccc1C(=O)c1ccc(N(CC)CC)cc1O [System D25, 2-[4-(diethylamine)-2-hydroxybenzoyl]hexyl benzoate]
Eco-compatibility (coral reefs; criteria: bleaching level, zooxanthellae release, zooxanthellae health, viral enrichment, listed as DHHB): greater eco-compatibility; also recorded: Highly compatible | Bacterial abundance (total bacterial number, TBN) ([2]; incubation 0 (start)): 3.67E+05 | Bacterial abundance (total bacterial number, TBN) ([2]; incubation 12 h): 2.63E+06 | Healthy zooxanthellae released [3]: 3.35E+02 cells ml^−1 | Pale zooxanthellae released [3]: 8.86E+03 cells ml^−1 | Total zooxanthellae released [3]: 1.64E+04 cells ml^−1 | Transparent (i.e., dead) zooxanthellae released [3]: 7.25E+03 cells ml^−1 | Percentage of healthy zooxanthellae released ([3]; end of incubation): 2% | Percentage of pale zooxanthellae released ([3]; end of incubation): 54% | Percentage of transparent zooxanthellae released ([3]; end of incubation): 44% | Total viral abundances (TVN) ([4]; incubation 0 (start)): 3.67E+05 viruses ml^−1 | Total viral abundances (TVN) ([4]; incubation 12 h): 2.63E+06 viruses ml^−1 | Viral enrichment factor (VEF) [4]: 7.44

C/C=C/C=C/C(=O)O [sorbic acid]
Harm to the marine environment of coral reefs (coral reefs): did not prove harmful
